Test results published in ChEMBL document CHEMBL1201862, “PubChem BioAssay data set” (2004).
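Where inhibition never reached the appropriate level, the endpoint shown equals the highest concentration tested. Otherwise, values were interpolated linearly from a five-concentration, 48-hour dose response in 96-well plates. GI50: concentration for 50% inhibition of growth.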 Active and inactive are the calls of the source. Cut-off read from the data, not from the text of the source: active = GI50 up to about 1.1 µM and inactive = higher.

Columns and labels:
Assay in all cases: NCI tumour cell line growth inhibition, 48 h
[1] = test system: NCI/ADR-RES
[2] = test system: U-251
[3] = test system: HOP-92
[4] = test system: T47D
[5] = test system: HT-29
[6] = test system: EKVX
[7] = test system: DU-145
[8] = test system: SN12C
[9] = test system: SK-MEL-2
[10] = test system: CAKI-1
[11] = test system: NCI-H460
[12] = test system: A498
[13] = test system: SF-295
[14] = test system: HOP-62
[15] = test system: OVCAR-4
[16] = test system: SF-268
[17] = test system: NCI-H522
[18] = test system: SK-OV-3
[19] = test system: SNB-75
[20] = test system: RXF 393

Measured: GI50

Oc1nc(S)nc2c1CN(CCCN1CCOCC1)CN2
inactive: [1] 37.8 µM | [2] 33.5 µM | [3] 37.7 µM | [4] 35.4 µM | [5] 35.9 µM | [6] > 100 µM | [7] 34.2 µM | [8] 46.7 µM | [9] 19.9 µM | [10] 30.4 µM | [11] 25.9 µM | [12] > 100 µM | [13] 28.2 µM | [14] 30.9 µM | [15] 38.5 µM | [16] 23.1 µM | [17] 21.2 µM

Cc1cc(NS(=O)(=O)c2ccc(NC(NC(=O)OC(C)C)(C(F)(F)F)C(F)(F)F)cc2)nc(C)n1
inactive: [18] > 100 µM | [19] > 100 µM | [20] > 100 µM | [1] > 100 µM | [2] > 100 µM | [3] > 100 µM | [4] 60.7 µM | [5] > 100 µM | [6] > 100 µM | [7] > 100 µM | [8] > 100 µM | [10] > 100 µM | [11] > 100 µM | [12] > 100 µM | [13] > 100 µM | [14] > 100 µM | [15] > 100 µM | [16] > 100 µM

Cc1cnc(Cl)nc1C(C#N)c1nc2ccccc2s1 (stereo unspecified)
inactive: [18] 18 µM | [19] 18.8 µM | [20] 17.2 µM | [1] 22 µM | [2] 20.1 µM | [3] 7.33 µM | [4] 34.1 µM | [5] 29.6 µM | [6] 32.8 µM | [7] 31.8 µM | [8] 14.1 µM | [10] 22.4 µM | [11] 30.7 µM | [12] 25.2 µM | [13] 19.8 µM | [14] 22.2 µM | [15] 22.8 µM | [16] 15.7 µM | [17] 2.84 µM

CCCCn1c2c(c3ccccc3c1=O)C(=O)c1ccccc1-2
inactive: [18] > 100 µM | [19] 37.2 µM | [1] > 100 µM | [2] 66.1 µM | [3] > 100 µM | [4] 16.2 µM | [5] 13.3 µM | [6] > 100 µM | [7] 34.5 µM | [8] > 100 µM | [9] > 100 µM | [10] 25.9 µM | [12] > 100 µM | [13] 37.8 µM | [14] 19.9 µM | [15] 1.82 µM | [16] 29 µM | [17] 37.8 µM

Cc1nn(C(=O)c2ccncc2)c2c1C(c1ccc([N+](=O)[O-])cc1)SC(=N)N2 (stereo unspecified)
inactive: [18] > 100 µM | [19] > 100 µM | [20] > 100 µM | [1] > 100 µM | [2] > 100 µM | [3] > 100 µM | [4] > 100 µM | [5] > 100 µM | [6] > 100 µM | [7] > 100 µM | [8] > 100 µM | [9] > 100 µM | [11] > 100 µM | [12] > 100 µM | [13] > 100 µM | [14] > 100 µM | [15] > 100 µM | [16] > 100 µM

O=S(=O)(c1ccccc1)N1CCCC(c2ccccc2)CC1 (stereo unspecified)
inactive: [19] 30.8 µM | [20] 41.5 µM | [1] 38 µM | [2] 45.5 µM | [3] > 100 µM | [4] 44.1 µM | [5] 15.1 µM | [7] > 100 µM | [8] 46 µM | [9] 45.9 µM | [10] > 100 µM | [11] 31.2 µM | [12] 49 µM | [13] 43.7 µM | [15] 79.1 µM | [16] 27.8 µM | [17] 35.4 µM

CCOC1CC(C)N(C(=O)c2ccccc2)O1 (stereo unspecified)
inactive: [18] > 100 µM | [20] > 100 µM | [1] > 100 µM | [2] > 100 µM | [3] 31.7 µM | [4] > 100 µM | [5] > 100 µM | [6] > 100 µM | [7] > 100 µM | [8] > 100 µM | [11] > 100 µM | [12] > 100 µM | [13] > 100 µM | [14] > 100 µM | [16] > 100 µM

CCCCCCCCCCCCCC/C(C(=O)O)=C(\C)C(=O)O
inactive: [18] > 100 µM | [19] > 100 µM | [20] > 100 µM | [1] 97.7 µM | [2] > 100 µM | [3] > 100 µM | [4] > 100 µM | [5] > 100 µM | [6] > 100 µM | [7] > 100 µM | [8] > 100 µM | [9] > 100 µM | [11] > 100 µM | [12] > 100 µM | [13] > 100 µM | [14] > 100 µM | [15] > 100 µM | [16] > 100 µM | [17] > 100 µM
